Assay results: paper PMC9790248, “Effects of CYP3A Inhibition, CYP3A Induction, and Gastric Acid Reduction on the Pharmacokinetics of Ripretinib, a Switch Control KIT Tyrosine Kinase Inhibitor” (Clinical Pharmacology in Drug Development, 2022)
“And” between values parts separate entries of the source, which are not always exact repeats. Identical values can stand only once.

Legend:
[1] = Itraconazole (strong CYP3A inhibitor) DDI study, plasma pharmacokinetics; assay type: in vivo, human; settings: for AUC(0-t) / AUC(0-inf) / Cmax / half-life / Tmax: both sexes, human, plasma; for AUC(0-t) / AUC(0-inf) / Cmax / half-life: po; for AUC(0-t) / AUC(0-inf) / Cmax / half-life / Tmax / CL/F, arithmetic mean (SD) / CL/F, geometric mean (CV%): fasting; for Tmax: read-out: tmax, median (min, max); for Time postdose that mean plasma concentration remained above the LLOQ: LLOQ 2.00 ng/mL
Description: (§1) All studies were phase 1, fixed‐sequence, open‐label studies in healthy volunteers. One study consisted of two separate cohorts examining DDIs between ripretinib and itraconazole or pantoprazole, respectively; the rifampin study was conducted separately. Studies and cohorts were enrolled independently. Eligible participants were healthy male or female adults between 18 and 55 years of age with a body mass index (BMI) of ≥18.5 and ≤30 kg/m^2. Good health was confirmed by a physician and based on medical evaluation with no significant findings, including medical history, physical examination, laboratory tests, and 12‐lead electrocardiogram (ECG) at screening and day −1. Participants were required to abstain from alcohol, marijuana, grapefruit, Seville oranges, tangelo, star fruit, and grapefruit‐like products 14 days prior to and during the study. Participants with a positive breath test for Helicobacter pylori were excluded from the pantoprazole study.
(§2) Ripretinib and its active metabolite DP‐5439 plasma concentrations were measured using a validated high‐performance liquid chromatography (HPLC) with tandem mass spectrometry (LC‐MS/MS) assay with a lower limit of quantification (LLOQ) of 2.00 ng/mL for both analytes. In this method, the analytes (ripretinib and DP‐5439) and the internal standards (ISs; DCC‐2618‐d5 and DP‐5439‐d5) were released from human plasma samples by protein precipitation. The supernatants were chromatographed using reversed‐phase HPLC with a Betasil® C8 analytical column with deionized water (0.1% formic acid) and 40/60 acetonitrile/acetone (0.1% formic acid) as the mobile phase. Mass spectrometric detection was performed on a triple quadrupole tandem mass spectrometer API 5000 or API 5500 (Applied Biosystems/MDS Sciex, Toronto, Canada) equipped with a turbo ion spray source operated in the positive ionization mode. The source parameters were collision energy 40 eV, collision gas 6 psi, Nebulizer Gas 1, Turbo IonSpray Gas 2, and curtain gas 35 psi. Quantification was obtained by using multiple reaction monitoring mode of the transitions of mass to charge ratio [m/z] 510.3 →417 for DCC‐2618 (ripretinib), m/z 496.2 →403 for DP‐5439, m/z 515.3 →417 for DCC‐2618‐d5, and m/z 501.2 →403 for DP‐5439‐d5.
(§3) Plasma concentration–time data were analyzed using noncompartmental methods using Phoenix® WinNonlin® v7.0 (Certara USA Inc., Princeton, New Jersey). Derived PK parameters included area under the concentration–time curve from time 0 to time t (AUC0–t) and area under the concentration–time curve from 0 to infinity (AUC0–∞), maximum observed concentration (Cmax), time of maximum observed concentration (tmax), elimination half‐life (t1/2), apparent systemic clearance, and for DP‐5439, metabolite to parent ratio for AUC0–t, AUC0–∞, and Cmax.
The PK population included all participants who received ≥1 dose ripretinib and had ≥1 nonmissing PK concentration in plasma reported for ripretinib or DP‐5439. The PK evaluable set included all participants in the PK population who had ripretinib PK parameters on both ripretinib dosing days, bioanalytical results for ≥75% of planned analyses, no missed ripretinib doses and ≤2 missed perpetrator (itraconazole, pantoprazole, or rifampin) doses before the second dosing day of ripretinib, and no emesis within 8 hours of ripretinib administration. […]

[2] = Rifampin (strong CYP3A inducer) DDI study, plasma pharmacokinetics; assay type: in vivo, human; settings: for AUC(0-t) / AUC(0-inf) / Cmax / half-life / Tmax: both sexes, human, plasma; for AUC(0-t) / AUC(0-inf) / Cmax / half-life: po; for Tmax: read-out: tmax, median (min, max); for Time postdose that mean plasma concentration remained above the LLOQ: LLOQ 2.00 ng/mL
Description: as §1
Participants were confined to the study center from days −1 through 22 for the collection of plasma PK samples and all study procedures. Participants received an oral dose of ripretinib 100 mg on day 1 under fasting conditions; a higher dose of ripretinib was used than in the itraconazole or pantoprazole study due to the potential for decreased ripretinib exposure when coadministered with a strong CYP3A inducer (Figure 1B). On day 8, participants received oral doses of rifampin 600 mg once daily 1 hour before a meal with a full glass of water for 14 consecutive days through day 21. On day 18, participants received a second dose of ripretinib 100 mg administered simultaneously with rifampin 600 mg under fasting conditions. Blood samples for PK analysis were collected at predose and 1, 2, 3, 4, 5, 8, 10, 12, 24, 36, 48, 72, and 96 hours after administration of ripretinib on days 1 and 18. Safety was assessed throughout the study period and with a follow‐up phone call on day 29 or 7 days after discontinuation in the case of early withdrawal.
as §2
as §3, with “Cmax. […]” for “Cmax.”

[3] = tested on: hepatocytes; set-up: method as in PMID 31085175; settings: cited from earlier work
[4] = ripretinib 50 mg single oral dose + itraconazole 200 mg QD, healthy participants (N = 20)
[5] = ripretinib 50 mg single oral dose alone, healthy participants (itraconazole study, N = 20)
[6] = ripretinib 50 mg with itraconazole 200 mg QD relative to ripretinib alone
[7] = ripretinib 100 mg single oral dose + rifampin 600 mg QD, fasting, healthy participants (N = 21)
[8] = ripretinib 100 mg single oral dose alone, fasting, healthy participants (rifampin study, N = 21)
[9] = ripretinib 100 mg with rifampin 600 mg QD relative to ripretinib alone
[10] = ripretinib 100 mg with rifampin 600 mg QD relative to ripretinib alone, listed as ripretinib

CCn1c(=O)c(-c2cc(NC(=O)Nc3ccccc3)c(F)cc2Br)cc2cnc(NC)cc21 [Ripretinib]
AUC(0-t) ([1]; 50 mg, ripretinib 50 mg single oral dose alone, healthy participants (itraconazole study, N = 20), read-out: AUC0–t, arithmetic mean (SD)): 4400 ng·h/mL | AUC(0-t) ([1]; 50 mg, ripretinib 50 mg single oral dose alone, healthy participants (itraconazole study, N = 20), read-out: AUC0–t, geometric mean (CV%)): 4060 ng·h/mL | AUC(0-inf) ([1]; 50 mg, ripretinib 50 mg single oral dose alone, healthy participants (itraconazole study, N = 20), read-out: AUC0–∞, arithmetic mean (SD)): 4500 ng·h/mL | AUC(0-inf) ([1]; 50 mg, ripretinib 50 mg single oral dose alone, healthy participants (itraconazole study, N = 20), read-out: AUC0–∞, geometric mean (CV%)): 4180 ng·h/mL | Cmax ([1]; 50 mg, ripretinib 50 mg single oral dose alone, healthy participants (itraconazole study, N = 20), read-out: Cmax, arithmetic mean (SD)): 321 ng/mL | Cmax ([1]; 50 mg, ripretinib 50 mg single oral dose alone, healthy participants (itraconazole study, N = 20), read-out: Cmax, geometric mean (CV%)): 291 ng/mL | half-life ([1]; 50 mg, ripretinib 50 mg single oral dose alone, healthy participants (itraconazole study, N = 20), read-out: t1/2, arithmetic mean (SD) (converted)): 17 h | half-life ([1]; 50 mg, ripretinib 50 mg single oral dose alone, healthy participants (itraconazole study, N = 20), read-out: t1/2, geometric mean (CV%) (converted)): 16 h | AUC(0-t) ([1]; ripretinib 50 mg single oral dose + itraconazole 200 mg QD, healthy participants (N = 20), read-out: AUC0–t, arithmetic mean (SD)): 8900 ng·h/mL | AUC(0-t) ([1]; ripretinib 50 mg single oral dose + itraconazole 200 mg QD, healthy participants (N = 20), read-out: AUC0–t, geometric mean (CV%)): 8060 ng·h/mL | AUC(0-inf) ([1]; ripretinib 50 mg single oral dose + itraconazole 200 mg QD, healthy participants (N = 20), read-out: AUC0–∞, arithmetic mean (SD)): 9190 ng·h/mL | AUC(0-inf) ([1]; ripretinib 50 mg single oral dose + itraconazole 200 mg QD, healthy participants (N = 20), read-out: AUC0–∞, geometric mean (CV%)): 8310 ng·h/mL | Cmax ([1]; ripretinib 50 mg single oral dose + itraconazole 200 mg QD, healthy participants (N = 20), read-out: Cmax, arithmetic mean (SD)): 404 ng/mL | Cmax ([1]; ripretinib 50 mg single oral dose + itraconazole 200 mg QD, healthy participants (N = 20), read-out: Cmax, geometric mean (CV%)): 395 ng/mL | half-life ([1]; ripretinib 50 mg single oral dose + itraconazole 200 mg QD, healthy participants (N = 20), read-out: t1/2, arithmetic mean (SD) (converted)): 27 h | half-life ([1]; ripretinib 50 mg single oral dose + itraconazole 200 mg QD, healthy participants (N = 20), read-out: t1/2, geometric mean (CV%) (converted)): 24 h | Tmax [1, 4]: 4 h | Tmax [1, 5]: 3 h | Increase in exposure with daily itraconazole coadministration ([1]; ripretinib 50 mg + itraconazole 200 mg QD vs ripretinib alone): up to 99% | Time postdose that mean plasma concentration remained above the LLOQ ([1]; ripretinib 50 mg alone (itraconazole study)): 96 h | CL/F, arithmetic mean (SD) [1, 4]: 7 (3) L/h | CL/F, geometric mean (CV%) [1, 4]: 6 (48) L/h | CL/F, arithmetic mean (SD) [1, 5]: 13 (5) L/h | CL/F, geometric mean (CV%) [1, 5]: 12 (42) L/h | Geometric LS mean ratio of AUC0–t [1, 6]: 198% | Geometric LS mean ratio of AUC0–∞ (90% CI) [1, 6]: 199 (174–227) % | Geometric LS mean ratio of Cmax (90% CI) [1, 6]: 136% and 136 (116–159) % | Geometric LS mean ratio of AUC0–∞ (90% CI) ([1]; ripretinib 50 mg with itraconazole 200 mg QD relative to ripretinib alone, listed as ripretinib): 199% | Time postdose that mean plasma concentration remained above the LLOQ ([1]; ripretinib 50 mg with itraconazole): up to 168 hours | AUC(0-t) ([2]; 100 mg, ripretinib 100 mg single oral dose alone, fasting, healthy participants (rifampin study, N = 21), read-out: AUC0–t, arithmetic mean (SD)): 6620 ng·h/mL | AUC(0-t) ([2]; 100 mg, ripretinib 100 mg single oral dose alone, fasting, healthy participants (rifampin study, N = 21), read-out: AUC0–t, geometric mean (CV%)): 5720 ng·h/mL | AUC(0-inf) ([2]; 100 mg, ripretinib 100 mg single oral dose alone, fasting, healthy participants (rifampin study, N = 21), read-out: AUC0–∞, arithmetic mean (SD)): 6220 ng·h/mL | AUC(0-inf) ([2]; 100 mg, ripretinib 100 mg single oral dose alone, fasting, healthy participants (rifampin study, N = 21), read-out: AUC0–∞, geometric mean (CV%)): 5820 ng·h/mL | Cmax ([2]; 100 mg, ripretinib 100 mg single oral dose alone, fasting, healthy participants (rifampin study, N = 21), read-out: Cmax, arithmetic mean (SD)): 392 ng/mL | Cmax ([2]; 100 mg, ripretinib 100 mg single oral dose alone, fasting, healthy participants (rifampin study, N = 21), read-out: Cmax, geometric mean (CV%)): 363 ng/mL | half-life ([2]; 100 mg, ripretinib 100 mg single oral dose alone, fasting, healthy participants (rifampin study, N = 21), read-out: t1/2, arithmetic mean (SD) (converted)): 15 h | half-life ([2]; 100 mg, ripretinib 100 mg single oral dose alone, fasting, healthy participants (rifampin study, N = 21), read-out: t1/2, geometric mean (CV%) (converted)): 15 h | AUC(0-t) ([2]; ripretinib 100 mg single oral dose + rifampin 600 mg QD, fasting, healthy participants (N = 21), read-out: AUC0–t, arithmetic mean (SD)): 2360 ng·h/mL | AUC(0-t) ([2]; ripretinib 100 mg single oral dose + rifampin 600 mg QD, fasting, healthy participants (N = 21), read-out: AUC0–t, geometric mean (CV%)): 2230 ng·h/mL | AUC(0-inf) ([2]; ripretinib 100 mg single oral dose + rifampin 600 mg QD, fasting, healthy participants (N = 21), read-out: AUC0–∞, arithmetic mean (SD)): 2400 ng·h/mL | AUC(0-inf) ([2]; ripretinib 100 mg single oral dose + rifampin 600 mg QD, fasting, healthy participants (N = 21), read-out: AUC0–∞, geometric mean (CV%)): 2270 ng·h/mL | Cmax ([2]; ripretinib 100 mg single oral dose + rifampin 600 mg QD, fasting, healthy participants (N = 21), read-out: Cmax, arithmetic mean (SD)): 321 ng/mL | Cmax ([2]; ripretinib 100 mg single oral dose + rifampin 600 mg QD, fasting, healthy participants (N = 21), read-out: Cmax, geometric mean (CV%)): 299 ng/mL | half-life ([2]; ripretinib 100 mg single oral dose + rifampin 600 mg QD, fasting, healthy participants (N = 21), read-out: t1/2, arithmetic mean (SD) (converted)): 7 h | half-life ([2]; ripretinib 100 mg single oral dose + rifampin 600 mg QD, fasting, healthy participants (N = 21), read-out: t1/2, geometric mean (CV%) (converted)): 7 h | Tmax [2, 7]: 3 h | Tmax [2, 8]: 3 h | Exposure when combined with rifampin, relative to ripretinib alone ([2]; ripretinib 100 mg + rifampin 600 mg QD): less than half | Time postdose that mean plasma concentration remained above the LLOQ ([2]; ripretinib 100 mg alone (rifampin study)): up to 96 hours | CL/F, arithmetic mean (SD) [2, 7]: 47 (16) L/h | CL/F, geometric mean (CV%) [2, 7]: 44 (35) L/h | t1/2, geometric mean (CV%) [2, 7]: 6 (46) h | CL/F, arithmetic mean (SD) [2, 8]: 18 (7) L/h | CL/F, geometric mean (CV%) [2, 8]: 17 (39) L/h | Geometric LS mean ratio of AUC0–t [2, 9]: 39% | Geometric LS mean ratio of AUC0–∞ (90% CI) [2, 9]: 39 (35–44) % | Geometric LS mean ratio of Cmax (90% CI) [2, 9]: 82 (72–94) % | Geometric LS mean ratio of AUC0–∞ (90% CI) [2, 10]: 39% | Geometric LS mean ratio of Cmax (90% CI) [2, 10]: 82% | Time postdose that mean plasma concentration remained above the LLOQ ([2]; ripretinib 100 mg with rifampin): approximately 36 hours | Major metabolic pathway [3]: N‐demethylation
